Molecular target: human A2a receptor (Homo sapiens, UniProt P29274)
Test: Adenosine antagonistic activity: radioligand binding with [3H]CGS 21680 (20 nM)
Settings: not given
Description: (§1) The adenosine antagonistic activity [Ki(nM)] of the test compound was examined by radioligand binding techniques using 8-cyclopentyl-1,3-dipropylxanthine, [dipropyl-2,3-^3H (N)] ([^3H]DPCPX, 4.5 nM) for human A1 receptor and [^3H]CGS 21680 (20 nM) for human A2a receptor.

Chain of human A2a receptor (P29274 whole entry): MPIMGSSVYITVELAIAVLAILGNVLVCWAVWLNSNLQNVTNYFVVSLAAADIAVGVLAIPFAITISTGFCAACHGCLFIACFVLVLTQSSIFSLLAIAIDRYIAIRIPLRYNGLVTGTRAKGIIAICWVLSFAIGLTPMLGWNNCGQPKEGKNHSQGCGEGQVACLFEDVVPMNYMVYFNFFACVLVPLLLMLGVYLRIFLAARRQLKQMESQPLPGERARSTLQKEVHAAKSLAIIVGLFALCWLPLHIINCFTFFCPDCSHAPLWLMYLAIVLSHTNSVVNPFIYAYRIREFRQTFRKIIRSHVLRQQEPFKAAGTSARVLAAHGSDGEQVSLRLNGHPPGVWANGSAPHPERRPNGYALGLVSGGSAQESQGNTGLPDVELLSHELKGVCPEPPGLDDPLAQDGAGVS

| Compound | Ki |
| --- | --- |
| CC(C)n1nc(-c2cc(-c3nc(-c4ccccc4)cs3)c(N)nc2-c2ccccc2)ccc1=O [Example 40, 6-[6-Amino-5-(4-phenyl-1,3-thiazol-2-yl)-2-phenyl-3-pyridyl]-2-isopropyl-3(2H)-pyridazinone] | 6.58 nM |
| CC(C)n1nc(-c2cc(O)cnc2-c2ccccc2)ccc1=O [Example 53, 6-(5-hydroxy-2-phenyl-3-pyridyl)-2-isopropyl-3(2H)-pyridazinone] | 3.87 nM |
| CC(C)n1cc(-c2cc(Cl)c(N)nc2-c2ccccc2)cc(Cl)c1=O [Example 119, 6′-Amino-5,5′-dichloro-1-isopropyl-2′-phenyl-3,3′-bipyridin-6(1H)-one] | 2.06 nM |
| CC(C)n1nc(-c2cc(Br)c(N)nc2-c2ccccc2)ccc1=O [Example 33, 6-(6-amino-5-bromo-2-phenyl-3-pyridyl)-2-isopropyl-3(2H)-pyridazinone] | 0.91 nM |

System: ddY mice
Test: Anticatalepsy activity in mouse (haloperidol-induced catalepsy, bar test)
Type: in vivo
Settings: test compound 3.2 mg/kg orally, ddY mice (n=7); haloperidol 0.32 mg/kg i.p. 30 min later; measured 30 min after injection
Description: The test compound (3.2 mg/kg) was administered orally with ddY mice (n=7). Then, haloperidol (0.32 mg/kg) was injected intraperitoneally 30 min. after the administration of the compound. Thirty min. After the injection, the cataleptic responses of mice were measured. The forelimbs of each mouse were placed on a 3 cm high, 3 mm wide horizontal bar, and the duration of cataleptic posture was measured for up to 30 sec.

| Compound | Manifestation rate of catalepsy (number of mouse) |
| --- | --- |
| CC(C)n1cc(-c2cc(Cl)c(N)nc2-c2ccccc2)cc(Cl)c1=O [Example 119, 6′-Amino-5,5′-dichloro-1-isopropyl-2′-phenyl-3,3′-bipyridin-6(1H)-one] | 0/7 |

Molecular target: T1, human A1 receptor (Homo sapiens, UniProt P30542)
T1 sequence (P30542 1-326): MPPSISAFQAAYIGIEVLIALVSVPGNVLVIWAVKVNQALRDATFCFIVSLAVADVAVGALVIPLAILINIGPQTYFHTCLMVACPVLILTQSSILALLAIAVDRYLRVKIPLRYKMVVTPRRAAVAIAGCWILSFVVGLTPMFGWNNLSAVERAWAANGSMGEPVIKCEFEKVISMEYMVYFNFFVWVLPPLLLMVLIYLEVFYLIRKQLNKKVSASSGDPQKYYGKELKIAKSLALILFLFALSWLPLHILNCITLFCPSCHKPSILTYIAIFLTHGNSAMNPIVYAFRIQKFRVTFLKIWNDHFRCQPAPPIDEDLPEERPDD
Test: Adenosine antagonistic activity: radioligand binding with [3H]DPCPX (4.5 nM)
Settings: not given
Description: as §1

| Compound | Ki |
| --- | --- |
| CC(C)n1nc(-c2cc(-c3nc(-c4ccccc4)cs3)c(N)nc2-c2ccccc2)ccc1=O [Example 40, 6-[6-Amino-5-(4-phenyl-1,3-thiazol-2-yl)-2-phenyl-3-pyridyl]-2-isopropyl-3(2H)-pyridazinone] | 4.44 nM |
| CC(C)n1nc(-c2cc(O)cnc2-c2ccccc2)ccc1=O [Example 53, 6-(5-hydroxy-2-phenyl-3-pyridyl)-2-isopropyl-3(2H)-pyridazinone] | 0.43 nM |
| CC(C)n1cc(-c2cc(Cl)c(N)nc2-c2ccccc2)cc(Cl)c1=O [Example 119, 6′-Amino-5,5′-dichloro-1-isopropyl-2′-phenyl-3,3′-bipyridin-6(1H)-one] | 1.99 nM |
| CC(C)n1nc(-c2cc(Br)c(N)nc2-c2ccccc2)ccc1=O [Example 33, 6-(6-amino-5-bromo-2-phenyl-3-pyridyl)-2-isopropyl-3(2H)-pyridazinone] | 0.41 nM |

System: not given
Test: not given
Settings: not given

| Compound | melting point |
| --- | --- |
| CC(C)n1nc(-c2cc(C(=O)NCc3ccccn3)cnc2-c2ccccc2)ccc1=O [Example 17, 5-(1-Isopropyl-6-oxo-1,6-dihydro-3-pyridazinyl)-6-phenyl-N-(2-pyridylmethyl)nicotinamide] | 193 to 194 °C |
| CC(C)n1nc(-c2cc(N)cnc2-c2ccccc2)ccc1=O [Example 26, 6-(5-amino-2-phenyl-3-pyridyl)-2-isopropyl-3 (2H)-pyridazinone] | 147 to 148 °C |
| CC(C)n1nc(-c2cc(C(N)=O)c(Cl)nc2-c2ccccc2)ccc1=O [Example 5, 2-chloro-5-(1-isopropyl-6-oxo-1,6-dihydro-3-pyridazinyl)-6-phenylnicotinamide] | 199 to 200 °C |
| CC(C)n1nc(-c2ccc(N)nc2-c2ccccc2)ccc1=O [Example 32, 6-(6-amino-2-phenyl-3-pyridyl)-2-isopropyl-3(2H)-pyridazinone] | 167 to 171 °C |
| CC(C)n1nc(-c2c(-c3ccccc3)nc(Cl)c(N)c2Cl)ccc1=O [Example 77, 6-(5-amino-4,6-dichloro-2-phenyl-3-pyridyl)-2-isopropyl-3(2H)-pyridazinone] | 186 to 188 °C |
| CC(C)n1nc(-c2cc(I)c(N)nc2-c2ccccc2)ccc1=O [Example 35, 6-(6-amino-5-iodo-2-phenyl-3-pyridyl)-2-isopropyl-3 (2H)-pyridazinone] | 196 to 197 °C |
| CNC(=O)c1cnc(-c2ccccc2)c(-c2ccc(=O)n(C(C)C)n2)c1 [Example 15, 5-(1-isopropyl-6-oxo-1,6-dihydro-3-pyridazinyl)-N-methyl-6-phenyl-nicotinamide] | 212 to 213 °C |
| CC(C)n1nc(-c2ccc(OCC(N)=O)nc2-c2ccccc2)ccc1=O [Example 31, 2-{[5-(1-isopropyl-6-oxo-1,6-dihydro-3-pyridazinyl)-6-phenyl-2-pyridyl]oxy}acetamide] | 137 to 138 °C |
| COC(=O)c1nc(-c2ccccc2)c(-c2ccc(=O)n(C(C)C)n2)cc1C#N [Example 9, methyl 3-cyano-5-(1-isopropyl-6-oxo-1,6-dihydro-3-pyridazinyl)-6-phenyl-2-pyridinecarboxylate] | 136 to 138 °C |
| CC(C)n1nc(-c2cc(C(=O)N3CCOCC3)cnc2-c2ccccc2)ccc1=O [Example 18, 2-Isopropyl-6-[5-(4-morpholinylcarbonyl)-2-phenyl-3-pyridyl]-3 (2H)-pyridazinone] | 132 to 133 °C |
| CC(C)n1nc(-c2cc(C#N)c(C(N)=O)nc2-c2ccccc2)ccc1=O [Example 12, 3-cyano-5-(1-isopropyl-6-oxo-1,6-dihydro-3-pyridazinyl)-6-phenyl-2-pyridinecarboxamide] | 221 to 223 °C |
| CC(C)n1nc(-c2cc(C(=O)N3CCN(C)CC3)cnc2-c2ccccc2)ccc1=O [Example 19, 2-Isopropyl-6-{5-[(4-methyl-1-piperazinyl)carbonyl]-2-phenyl-3-pyridyl}-3(2H)-pyridazinone] | 165 to 166 °C |
| CC(C)n1nc(-c2cc(C(=O)NCc3ccccc3)cnc2-c2ccccc2)ccc1=O [Example 16, N-Benzyl-5-(1-isopropyl-6-oxo-1,6-dihydro-3-pyridazinyl)-6-phenylnicotinamide] | 205 to 206 °C |
| CC(=O)c1cnc(-c2ccccc2)c(-c2ccc(=O)n(C(C)C)n2)c1 [Example 23, 6-(5-acetyl-2-phenyl-3-pyridyl)-2-isopropyl-3(2H)-pyridazinone] | 207 to 208 °C |
| CC(C)n1nc(-c2cc(C#N)c(C(=O)O)nc2-c2ccccc2)ccc1=O [Example 11, 3-cyano-5-(1-isopropyl-6-oxo-1,6-dihydro-3-pyridazinyl)-6-phenyl-2-pyridinecarboxylic acid] | 196 to 198 °C |
| CC(C)n1nc(-c2cc(C(N)=O)cnc2-c2ccccc2)ccc1=O [Example 6, 5-(1-isopropyl-6-oxo-1,6-dihydro-3-pyridazinyl)-6-phenylnicotinamide] | 229 to 230 °C |

| Compound | melting point |
| --- | --- |
| CC(C)n1nc(-c2cc(-c3ncnn3C)c(N)nc2-c2ccccc2)ccc1=O [Example 122, 6-[6-amino-5-(1-methyl-1H-1,2,4-triazol-5-yl)-2-phenyl-3-pyridyl]-2-isopropyl-3 (2H)-pyridazinone] | 253 to 254 °C |
| CC(C)n1nc(-c2cc(C(=O)O)c(=O)[nH]c2-c2ccccc2)ccc1=O [Example 13, 5-(1-isopropyl-6-oxo-1,6-dihydro-3-pyridazinyl)-2-oxo-6-phenyl-1,2-dihydro-3-pyridinecarboxylic acid] | 212 to 215 °C |
| CC(C)n1nc(-c2cc(C#N)c(Cl)nc2-c2ccccc2)ccc1=O [Example 2, 2-chloro-5-(1-isopropyl-6-oxo-1,6-dihydro-3-pyridazinyl)-6-phenylnicotinonitrile] | 191 to 192 °C |
| CC(C)n1nc(-c2cc(-n3cccc3)cnc2-c2ccccc2)ccc1=O [Example 29, 2-isopropyl-6-[2-phenyl-5-(1H-pyrrol-1-yl)-3-pyridyl]-3(2H)-pyridazinone] | 189 to 190 °C |
| COc1nc(-c2ccccc2)c(-c2ccc(=O)n(C(C)C)n2)cc1C#N [Example 10, 5-(1-isopropyl-6-oxo-1,6-dihydro-3-pyridazinyl)-2-methoxy-6-phenylnicotinonitrile] | 187 to 189 °C |
| CC(C)n1nc(-c2cc(C#N)cnc2-c2ccccc2)ccc1=O [Example 8, 5-(1-isopropyl-6-oxo-1,6-dihydro-3-pyridazinyl)-6-phenylnicotinonitrile] | 133 to 135 °C |
| COC(=O)c1cc(-c2ccc(=O)n(C(C)C)n2)c(-c2ccccc2)nc1OCC(N)=O [Example 50, Methyl 2-carbamoylmethoxy-5-(1-isopropyl-6-oxo-1,6-dihydro-3-pyridazinyl)-6-phenylnicotinate] | 183 to 184 °C |
| CC(C)n1nc(-c2cc(-c3ccccc3)c(N)nc2-c2ccccc2)ccc1=O [Example 36, 6-(6-amino-2,5-diphenyl-3-pyridyl)-2-isopropyl-3 (2H)-pyridazinone] | 208 to 209 °C |
| CC(C)n1nc(-c2cc(C(=O)NCCN3CCOCC3)cnc2-c2ccccc2)ccc1=O [Example 22, 5-(1-Isopropyl-6-oxo-1,6-dihydro-3-pyridazinyl)-N-[2-(4-morpholinyl)ethyl]-6-phenylnicotinamide] | 162 to 163 °C |
| CC(C)n1nc(-c2cc(C#N)c(=O)[nH]c2-c2ccccc2)ccc1=O [Example 1, 5-(1-isopropyl-6-oxo-1,6-dihydro-3-pyridazinyl)-2-oxo-6-phenyl-1,2-dihydro-3-pyridine-carbonitrile] | > 250 °C |
| CC(C)n1nc(-c2cc(Cl)c(N)nc2-c2ccccc2)ccc1=O [Example 34, 6-(6-amino-5-chloro-2-phenyl-3-pyridyl)-2-isopropyl-3 (2H)-pyridazinone] | 207 to 208 °C |
| CC(C)n1nc(-c2cc(C(N)=O)c(N)nc2-c2ccccc2)ccc1=O [Example 7, 2-Amino-5-(1-isopropyl-6-oxo-1,6-dihydro-3-pyridazinyl)-6-phenylnicotinamide] | > 250 °C |
| CC(C)n1nc(-c2ccc(=O)[nH]c2-c2ccccc2)ccc1=O [Example 30, 2-isopropyl-6-(6-oxo-2-phenyl-1,6-dihydro-3-pyridyl)-3(2H)-pyridazinone] | 107 to 109 °C |
| CC(C)n1nc(-c2cc(Br)c(N)nc2-c2ccccc2)ccc1=O [Example 33, 6-(6-amino-5-bromo-2-phenyl-3-pyridyl)-2-isopropyl-3(2H)-pyridazinone] | 174 to 176 °C |
| CC(=O)Nc1cnc(-c2ccccc2)c(-c2ccc(=O)n(C(C)C)n2)c1 [Example 28, N-[5-(1-Isopropyl-6-oxo-1,6-dihydro-3-pyridazinyl)-6-phenyl-3-pyridyl]acetamide] | 207 to 208 °C |
| CC(C)n1nc(-c2cc(C(=O)NCCO)cnc2-c2ccccc2)ccc1=O [Example 20, N-(2-Hydroxyethyl)-5-(1-isopropyl-6-oxo-1,6-dihydro-3-pyridazinyl)-6-phenylnicotinamide] | 165 to 167 °C |

From patent US20040067955A1, “Pyridazinone compound and pharmaceutical use thereof” (Fujisawa Pharmaceutical Co. Ltd., priority 2002, published 2004)
